# Reference: ChEMBL document CHEMBL1201862, “PubChem BioAssay data set” (2004)
#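 Following 48 hours of exposure in 96-well plates, responses at five concentrations were used to interpolate endpoints linearly. The concentration for 50% growth inhibition is given as GI50.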 Active and inactive are the calls of the source. Cut-off read from the data, not from the text of the source: active = GI50 up to about 1.1 µM and inactive = higher.
# Key:
# Assay in all cases: NCI anticancer screen, dose series, 48 h
# BT-549 = tested on: BT-549
# DMS-114 = tested on: DMS-114
# DMS-273 = tested on: DMS-273
# HOP-18 = tested on: HOP-18
# SNB-78 = tested on: SNB-78
# KM-20L2 = tested on: KM-20L2
# M19-MEL = tested on: M19-MEL
# XF498 = tested on: XF498
# RXF 631 = tested on: RXF 631
SMILES,GI50 (BT-549),GI50 (DMS-114),GI50 (DMS-273),GI50 (KM-20L2),GI50 (M19-MEL),also measured
Cc1ncc([N+](=O)[O-])n1CCNC(=O)Cn1c([N+](=O)[O-])cnc1C,> 100 µM (inactive),–,–,–,–,–
CC(C)(C)c1cc(Br)c(O)c(CN(Cc2cc(C(C)(C)C)cc(Br)c2O)C2CCCCC2)c1,15.8 µM (inactive),–,–,–,–,–
COc1ccc2c(c1)Cc1cc(/N=[N+](\[O-])c3ccc4c(c3)Cc3cc(OC)ccc3-4)ccc1-2,76.7 µM (inactive),–,–,–,–,–
CCOC(=O)C(C)c1nc2cc3cccnc3c(Cl)c2[nH]c1=O (stereo not given),> 100 µM (inactive),–,–,–,–,–
O=C(N/N=C1/C(=O)c2c3ccccc3cc3cccc1c23)c1cccc(Cl)c1,> 100 µM (inactive),–,–,–,–,–
CCN1CN(c2ccccc2)C2(CCN(CC3COc4ccccc4O3)CC2)C1=O (stereo not given),16 µM (inactive),–,–,–,–,–
CC(Oc1ccccc1Cl)C(=O)NN1C(=O)CC(=O)N(c2ccccc2)C1=S (stereo not given),54.1 µM (inactive),–,–,–,–,–
COc1cccc(/C=C/c2cnc3ccccc3n2)c1OC,17.4 µM (inactive),–,–,–,–,–
O=C1c2ccccc2CC12CCC1(CC2)OCCO1,> 100 µM (inactive),–,–,–,–,–
O=c1c(-c2ccccc2)c2oc(c1-c1ccccc1)CSCc1cccc(c1)CSC2,–,36.9 µM (inactive),39.5 µM (inactive),67.9 µM (inactive),45.9 µM (inactive),GI50 (HOP-18): 27.8 µM (inactive); GI50 (SNB-78): 82.8 µM (inactive)
Clc1nc(Cl)c(-c2ccccc2)c(Cl)n1,2.61 µM (inactive),–,–,–,–,–
O=C1Nc2ccccc2/C1=N/Nc1nc(-c2ccc([N+](=O)[O-])cc2)cs1,15.6 µM (inactive),–,–,–,–,–
C[n+]1c2ccccc2c(CNCC(=O)O)c2ccccc21,–,2.13 µM (inactive),0.646 µM (active),0.327 µM (active),4.43 µM (inactive),GI50 (HOP-18): 10.3 µM (inactive); GI50 (XF498): 2.14 µM (inactive); GI50 (SNB-78): 11.3 µM (inactive)
Cn1c2ccccc2c(=O)c2c(O)cc3c(c21)CC(C1(C)CO1)O3 (stereo not given),1.67 µM (inactive),2.13 µM (inactive),21.9 µM (inactive),4.66 µM (inactive),–,GI50 (RXF 631): 3.61 µM (inactive); GI50 (HOP-18): 32.3 µM (inactive); GI50 (XF498): 1.88 µM (inactive)
CC(C)/C(Cl)=N/OC(=O)Nc1cccc(C(F)(F)F)c1,3.64 µM (inactive),–,–,–,–,–
O=[N+]([O-])c1nccn1CCCNCCCn1ccnc1[N+](=O)[O-],> 100 µM (inactive),–,–,–,–,–
CCOC(=O)[C@H]1Nc2ccc(O)cc2C2c3ccccc3CC21 (stereo not given in full),–,56.2 µM (inactive),59.2 µM (inactive),> 100 µM (inactive),55.1 µM (inactive),GI50 (RXF 631): > 100 µM (inactive); GI50 (HOP-18): > 100 µM (inactive); GI50 (SNB-78): > 100 µM (inactive)
Cc1ccc(S(=NS(=O)(=O)c2ccc(C)cc2)c2ccc(C)cc2)cc1,> 100 µM (inactive),–,–,–,–,–
CCc1c2c([nH]c(=S)c1C#N)CCC2,> 100 µM (inactive),–,–,–,–,–
S=c1[nH]n2c(CCCCCCCCc3nnc4sc(=S)[nH]n34)nnc2s1,> 100 µM (inactive),–,–,–,–,–
COc1cccc(C2C(C(=O)Nc3cc(=O)n(C)c(=O)n3C)=C(C)NC(C)=C2C(=O)Nc2cc(=O)n(C)c(=O)n2C)c1O,–,> 100 µM (inactive),–,> 100 µM (inactive),> 100 µM (inactive),GI50 (RXF 631): > 100 µM (inactive); GI50 (XF498): > 100 µM (inactive); GI50 (SNB-78): > 100 µM (inactive)

SMILES,GI50 (BT-549),GI50 (DMS-114),GI50 (DMS-273),GI50 (KM-20L2),GI50 (M19-MEL),also measured
CN(C)Cc1c(O)ccc2c1c1c(n2C)C(=O)c2ccccc2C1=O,11.5 µM (inactive),–,–,–,–,–
Cc1ccc(S(=O)(=O)C2CC2(Cl)Cl)cc1 (stereo not given),–,19.7 µM (inactive),32.5 µM (inactive),> 100 µM (inactive),25.1 µM (inactive),GI50 (RXF 631): 20.9 µM (inactive); GI50 (XF498): 21.2 µM (inactive)
COC(=O)C1=C(CCCCO[Si](C)(C)C(C)(C)C)NC(=O)N2[C@@H](CCOCc3ccccc3)CC[C@H]12,20.5 µM (inactive),–,–,–,–,–
C[N+](C)(C)c1ncnc2c1ncn2C1CCCO1 (stereo not given),> 100 µM (inactive),–,–,–,–,–
C=CCN(c1cc(OC)c(NC(C)=O)cc1[N+](=O)[O-])S(C)(=O)=O,> 100 µM (inactive),–,–,–,–,–
CCOc1ccc(NC(=O)CC2C(=O)Nc3ccccc3[S+]2[O-])cc1 (stereo not given),–,–,> 67.1 µM (inactive),> 46.5 µM (inactive),> 100 µM (inactive),GI50 (RXF 631): > 84.9 µM (inactive); GI50 (HOP-18): > 100 µM (inactive); GI50 (XF498): 38.8 µM (inactive); GI50 (SNB-78): > 100 µM (inactive)
Cc1ccc2c(c1)C1(C)OC(C=CC1=O)O2 (stereo not given),0.389 µM (active),–,–,–,–,–
CC(=O)N1C(Nc2nccs2)CCN1c1ccccc1 (stereo not given),> 10 µM (inactive),–,–,–,–,–
C/C=C\C(CC(=O)NCCc1c[nH]c2ccccc12)CC(=O)OC (stereo not given),> 100 µM (inactive),–,–,–,–,–
CN(C)/C=N/S(=O)(=O)c1nn2c(C=O)c(-c3ccccc3)nc2s1,4.65 µM (inactive),–,–,–,–,–
C[Si](C)(c1ccccc1)C1CC(=O)CC(=O)C1,–,> 100 µM (inactive),> 100 µM (inactive),> 100 µM (inactive),> 100 µM (inactive),GI50 (HOP-18): > 100 µM (inactive); GI50 (XF498): > 100 µM (inactive); GI50 (SNB-78): > 100 µM (inactive)
C=C(CC[C@@H](C)[C@H]1CC[C@H]2[C@@H]3C[C@@H](O)[C@H]4C[C@@H](O)CC[C@]4(CO)[C@H]3CC[C@]12C)C(C)C,8.09 µM (inactive),–,–,–,–,–
CC(=O)C(C(=O)c1ccc(C)cc1)[C@H]1OC(C)(C)O[C@H]1[C@H]1COC(C)(C)O1 (stereo not given in full),6.3 µM (inactive),–,–,–,–,–
COc1nc2c(c(O)c(C)c(=O)n2OC2OCC(OC(C)=O)C(OC(C)=O)C2OC(C)=O)c(=O)n1C (stereo not given),–,> 100 µM (inactive),> 100 µM (inactive),> 100 µM (inactive),> 100 µM (inactive),GI50 (XF498): > 100 µM (inactive); GI50 (SNB-78): > 100 µM (inactive)
C[N+](C)(C)CC(=O)N/N=C(/C=C/c1ccccc1)CC1OC(=O)c2ccccc21 (stereo not given),–,> 100 µM (inactive),> 100 µM (inactive),> 100 µM (inactive),> 100 µM (inactive),GI50 (HOP-18): > 100 µM (inactive); GI50 (XF498): > 100 µM (inactive); GI50 (SNB-78): > 100 µM (inactive)
O=c1[nH]cc(F)c(=O)n1C1OC(CO)C(O)C1O (stereo not given),–,> 100 µM (inactive),> 100 µM (inactive),> 100 µM (inactive),–,GI50 (HOP-18): > 100 µM (inactive); GI50 (XF498): > 100 µM (inactive); GI50 (SNB-78): > 100 µM (inactive)
CCOc1ccc2c(c1)[n+]([O-])c(C(N)=O)c(N)[n+]2[O-],–,> 100 µM (inactive),> 100 µM (inactive),> 100 µM (inactive),> 100 µM (inactive),GI50 (HOP-18): > 100 µM (inactive); GI50 (XF498): > 100 µM (inactive); GI50 (SNB-78): > 100 µM (inactive)
O=C(O)/C(Cl)=C(\Cl)Nc1cccc(C(F)(F)F)c1,–,> 100 µM (inactive),> 100 µM (inactive),> 100 µM (inactive),> 100 µM (inactive),GI50 (HOP-18): > 100 µM (inactive); GI50 (XF498): > 100 µM (inactive); GI50 (SNB-78): > 100 µM (inactive)
Cc1ccc(NC(=O)c2cc(S(=O)(=O)Nc3n[nH]c(=O)n3-c3ccccc3)c(S)cc2Cl)cc1,> 100 µM (inactive),–,–,–,–,–
CC(=O)Oc1ccc2oc(=O)cc(C)c2c1,> 100 µM (inactive),–,–,–,–,–
COc1ccc(/C=c2/sc3n(c2=O)C(c2ccccc2)C2(O)CCCCC2N=3)cc1 (stereo not given),> 12.5 µM (inactive),–,–,–,–,–

SMILES,GI50 (BT-549),GI50 (DMS-114),GI50 (DMS-273),GI50 (KM-20L2),GI50 (M19-MEL),also measured
COC(=O)C(C(=O)C(=O)Nc1ccc(C(F)(F)F)cc1[N+](=O)[O-])c1csc(-n2nc(-c3ccccc3)cc2-c2ccccc2)n1 (stereo not given),–,> 100 µM (inactive),> 100 µM (inactive),> 100 µM (inactive),> 100 µM (inactive),GI50 (SNB-78): > 100 µM (inactive)
ClCCc1ccccc1CC1=NCCc2ccccc21,30.3 µM (inactive),–,–,–,–,–
N#CCC1(c2ccc(Cl)cc2)NC(=O)c2ccccc21 (stereo not given),> 100 µM (inactive),–,–,–,–,–
Nc1nc(Cl)cc(NCC2(CO)CC(CCCc3ccccc3)C2)n1 (stereo not given),> 100 µM (inactive),–,–,–,–,–
CCCC(S(=O)(=O)c1ccccc1)S(=O)(=O)c1ccccc1,–,> 100 µM (inactive),> 100 µM (inactive),> 100 µM (inactive),> 100 µM (inactive),GI50 (RXF 631): > 100 µM (inactive); GI50 (XF498): > 100 µM (inactive); GI50 (SNB-78): > 100 µM (inactive)
O=[N+]([O-])c1cccc(S(=O)(=O)N/N=C/c2cc(I)cc([N+](=O)[O-])c2O)c1,–,21.6 µM (inactive),25.6 µM (inactive),43 µM (inactive),34.8 µM (inactive),GI50 (HOP-18): 29.6 µM (inactive); GI50 (SNB-78): 22 µM (inactive)
C[C@@H]1OC(=O)N2CCCC(=C3SCCCS3)C12 (stereo not given in full),–,25.1 µM (inactive),97.7 µM (inactive),93.8 µM (inactive),45.6 µM (inactive),GI50 (HOP-18): 52.5 µM (inactive); GI50 (XF498): 36.6 µM (inactive); GI50 (SNB-78): > 100 µM (inactive)
CCN(CC)CCOc1ccccc1/C=C/c1noc2ccccc12,16.3 µM (inactive),–,–,–,–,–
Cc1ccccc1C(C#N)/C(=N/NC(=O)c1cc2ccccc2cc1O)C(=O)Nc1cccc(Cl)c1 (stereo not given),–,17.2 µM (inactive),6.75 µM (inactive),31.1 µM (inactive),17.3 µM (inactive),GI50 (HOP-18): 5.37 µM (inactive); GI50 (XF498): 14.8 µM (inactive); GI50 (SNB-78): 21.8 µM (inactive)
O=c1c(Cc2ccc(Cl)cc2)nnc2sc(-c3ccc(-c4ccc(F)c(Cl)c4)o3)nn12,78.2 µM (inactive),–,–,–,–,–
O=C(CSc1nc2ccccc2s1)c1sc2sc3ccccc3[n+]2c1[O-],> 100 µM (inactive),–,–,–,–,–
Cc1nc(N)sc1/N=N/c1ccccc1Br,24.7 µM (inactive),–,–,–,–,–
O=C1c2cccc(O)c2C(=O)c2c(OC3OC(CO)C(O)C(O)C3O)cccc21 (stereo not given),21.8 µM (inactive),–,–,–,–,–
Nc1nc2c(ncn2CCCC(c2ccccc2)P(=O)(O)O)c(=O)[nH]1 (stereo not given),–,> 100 µM (inactive),> 100 µM (inactive),> 100 µM (inactive),> 100 µM (inactive),GI50 (HOP-18): 62.4 µM (inactive); GI50 (SNB-78): > 100 µM (inactive)
O=C1C(N2C(=O)c3ccccc3C2=O)CN1C(COCc1ccccc1)c1ccc(OCc2ccccc2)cc1 (stereo not given),–,> 100 µM (inactive),> 100 µM (inactive),> 100 µM (inactive),> 100 µM (inactive),GI50 (XF498): > 100 µM (inactive); GI50 (SNB-78): > 100 µM (inactive)
COC(=O)[C@]1(c2cc3ccccc3[nH]2)CC2CNC1C1OC(C)(C)OC21 (stereo not given in full),> 100 µM (inactive),–,–,–,–,–
CC(=O)Oc1ccc(/C=C/C(=O)O[C@@H](C(=O)O)[C@@H](OC(=O)/C=C/c2ccc(OC(C)=O)c(OC(C)=O)c2)C(=O)O)cc1OC(C)=O,> 100 µM (inactive),–,–,–,–,–
COc1ccc(-c2nc3c(nc2-c2ccc(OC)cc2)N(C)S(=O)(=O)N=C3N)cc1,–,17.3 µM (inactive),41.6 µM (inactive),40.6 µM (inactive),31.5 µM (inactive),GI50 (HOP-18): 47.2 µM (inactive)
Clc1ccc(CCN2CCN(CCCc3ccccc3)CC2)cc1Cl,15.8 µM (inactive),–,–,–,–,–
